15 molecules from ChEMBL document CHEMBL4840311, “Discovery of novel nitrogenous heterocyclic-containing quinoxaline-1,4-di-N-oxides as potent activator of autophagy in M.tb-infected macrophages” (Eur J Med Chem, 2021) can be followed below.

pIC50: −log10 of the molar value. In brackets after ≈: the same amount, converted by molar mass.

In series [1] the test system is Mycobacterium tuberculosis. Kind of series: Antimycobacterial activity against Mycobacterium tuberculosis H37Rv ATCC 27294 assessed as inhibition of bacterial growth measured after 5 days by microplate alamar blue assay. The series is classed as functional. Conditions: H37Rv ATCC 27294, 120 h, time 5 day. Background: The colour change of resazurin is a common sign of viable cells or microbes.

Series [2] can be described thus: Selectivity index, ratio of IC50 for African green monkey Vero cells measured after 72 hrs by MTT assay to MIC for antimycobacterial activity against Mycobacterium tuberculosis H37Rv ATCC 27294 assessed as inhibition of bacterial growth measured after 5 days by microplate alamar blue assay. The series is classed as toxicity. The settings on record: read-out: Selectivity Index.

The test system of the next series is Vero. The series can be described thus: Cytotoxicity against African green monkey Vero cells assessed as reduction in cell viability measured after 72 hrs by MTT assay. Conditions: Chlorocebus sabaeus. The series is classed as cell-based. For orientation: Tetrazolium dyes change colour on reduction, which living cells bring about.
A further series relates to J774.A1. The series can be described thus: Cytotoxicity against mouse J774.A1 cells assessed as reduction in cell viability measured after 72 hrs by MTT assay. Conditions: J774.A1, 72 h. The series is classed as cell-based.
The test system of series [3] is Mycobacterium tuberculosis. The series can be described thus: Antimycobacterial activity against Mycobacterium tuberculosis H37Rv infected in mouse J774.A1 cells assessed as log reduction of bacterial growth at 1X to 40X MIC measured after 4 days by visual colony counting analysis. The series is classed as functional. Conditions: time 4 day.
Series [4] deals with Mycobacterium tuberculosis. Kind of series: Antimycobacterial activity against Mycobacterium tuberculosis H37Rv infected in mouse J774.A1 cells assessed as log reduction of bacterial growth at 10X MIC measured after 1 days by visual colony counting analysis. The series is classed as functional. The settings on record: time 1 day.
For series [5], the system named is Mycobacterium tuberculosis. The series can be described thus: Antimycobacterial activity against Mycobacterium tuberculosis H37Rv infected in mouse J774.A1 cells assessed as log reduction of bacterial growth at 1X MIC measured after 1 days by visual colony counting analysis. The series is classed as functional. Conditions: time 1 day.

Broadly, the MIC is the lowest concentration that inhibits growth of the organism. Take `Cc1c(C(=O)OC(C)C)[n+]([O-])c2cc(F)c(F)cc2[n+]1[O-]`: the minimal inhibitory concentration (MIC) in series [1] is 16 µg/mL (≈ 53.6 µM).

Usually pIC50 stands for −log10 of the IC50, conventionally taken in molar units. With `CCOC(=O)c1c(C(F)(F)F)[n+]([O-])c2cc(N3CCNCC3)c(F)cc2[n+]1[O-]`, the selectivity ratio at 72 hrs in series [2] is 25.3. The MIC in series [1] worked out at 0.5 µg/mL (≈ 1.24 µM). For the same molecule, in the series on Vero, the pIC50 was 4.50.

Take `CC(=O)c1c(C)[n+]([O-])c2cc(-n3ccnc3)c(F)cc2[n+]1[O-]`: the selectivity ratio at 72 hrs in series [2] turned out to be 46.4. Further, the values for the pIC50 with J774.A1 and in the series with Vero were 4.11 and 4.02, respectively. Further, in series [1], the MIC was 0.5 µg/mL (≈ 1.65 µM).

Regarding `CCOC(=O)c1c(C)[n+]([O-])c2cc(-n3ccnc3)c(F)cc2[n+]1[O-]`, the selectivity ratio at 72 hrs in series [2] is 172. Also, the pIC50 is 4.11 with J774.A1 and 3.89 in the series with Vero. Further, the MIC in series [1] came out at 0.25 µg/mL (≈ 0.752 µM).

Regarding `CC(=O)c1c(C)[n+]([O-])c2cc(N3CCNCC3)ccc2[n+]1[O-]`, in series [1], the MIC was determined as 64 µg/mL (≈ 212 µM).

Consider `CC(=O)c1c(C)[n+]([O-])c2cc(N3CCNC(C)C3)c(F)cc2[n+]1[O-]` (configuration not stated), for which the MIC in series [1] was 16 µg/mL (≈ 47.9 µM).

As to `CCCC(=O)c1c(C)[n+]([O-])c2ccccc2[n+]1[O-]`, the MIC in series [1] is 64 µg/mL (≈ 260 µM).

Take `Cc1c(C(=O)OC(C)C)[n+]([O-])c2cc(F)c(-n3ccnc3)cc2[n+]1[O-]`: the selectivity ratio at 72 hrs in series [2] is 19.5. Besides, the pIC50 with J774.A1 is 4.11; in the series on Vero it was 3.95. In series [1], the MIC was 2 µg/mL (≈ 5.78 µM).

Turning to `CCOC(=O)c1c(C)[n+]([O-])c2cc(N3CCNC(C)C3)c(F)cc2[n+]1[O-]` (configuration not stated), the MIC in series [1] was 8 µg/mL (≈ 22 µM).

For the molecule `CO[C@H]1/C=C/O[C@@]2(C)Oc3c(C)c(O)c4c(O)c(c(/C=N/N5CCN(C)CC5)c(O)c4c3C2=O)NC(=O)/C(C)=C\C=C\[C@H](C)[C@H](O)[C@@H](C)[C@@H](O)[C@@H](C)[C@H](OC(C)=O)[C@@H]1C` [RIFAMPIN], the MIC in series [1] came out at 0.0625 µg/mL (≈ 0.0759 µM).

Regarding `CCOC(=O)c1c(C)[n+]([O-])c2cc(N3CCOCC3)c(F)cc2[n+]1[O-]`, in series [1], the MIC was 64 µg/mL (≈ 182 µM).

Turning to `Cc1c(C(=O)OCc2ccccc2)[n+]([O-])c2cc(F)c(-n3ccnc3)cc2[n+]1[O-]`, the “log(activity)” value in series [3] is on record as 2.15; in series [4], 0.18; in series [5] it was 0.04. Also, the selectivity ratio at 72 hrs in series [2] was determined as 169. In addition, the pIC50 with J774.A1 is 4.11; in the series with Vero it was 3.97. In addition, in series [1], the MIC worked out at 0.25 µg/mL (≈ 0.634 µM).

Turning to `Cc1c(C(=O)CC(C)C)[n+]([O-])c2cc(F)c(N3CCNCC3)cc2[n+]1[O-]`, the MIC in series [1] is 32 µg/mL (≈ 88.3 µM).

For `CCOC(=O)c1c(C)[n+]([O-])c2cc(N3CCN(C)CC3)c(F)cc2[n+]1[O-]`, the MIC in series [1] was 8 µg/mL (≈ 22 µM).

In the case of `CCOC(=O)c1c(C)[n+]([O-])c2cc(N3CCNCC3)c(F)cc2[n+]1[O-]`, the MIC in series [1] was found to be 4 µg/mL (≈ 11.4 µM).
